Laboratory results as given in the supplement of paper PMC11127212.

What was measured:
[1] = collision cross section (TWIMS, N2) of ion [M+Na]+; higher = larger gas-phase ion cross section; settings: ionization: ESI positive; LC: HILIC, pH 3.0 ammonium formate
Protocol: (§1)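 Reference standards (20-100 uM) were separated by HILIC UPLC (BEH HILIC, 45 °C): acidic pH 3.0 ammonium formate/formic acid for ESI+ and basic pH 9.0 ammonium acetate/ammonia for ESI-. They were analysed on a Synapt G2-Si traveling-wave IMS-QTOF with nitrogen drift gas (WH 30 V; WV 800 m/s in ESI+ and 1000 m/s in ESI-). CCS (TWCCSN2, Å2) was calibrated with Major Mix IMS/TOF and LockCCS leucine enkephalin; inter-day RSD was <1%.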

[2] = collision cross section (TWIMS, N2) of ion [M-H]-; higher = larger gas-phase ion cross section; settings: ionization: ESI negative; LC: HILIC, pH 9.0 ammonium acetate
Protocol: as §1, with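 “ESI-).” for “ESI-). CCS (TWCCSN2, Å2) was calibrated with Major Mix IMS/TOF and LockCCS leucine enkephalin; inter-day RSD was <1%.”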

[3] = retention time on BEH HILIC column (20 min gradient, 0.4 mL/min); higher = later elution; settings: LC: HILIC
Protocol: as §1, with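 “ESI-).” for “ESI-). CCS (TWCCSN2, Å2) was calibrated with Major Mix IMS/TOF and LockCCS leucine enkephalin; inter-day RSD was <1%.”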

[4] = collision cross section (TWIMS, N2) of ion [M+H]+; higher = larger gas-phase ion cross section; settings: ionization: ESI positive; LC: HILIC, pH 3.0 ammonium formate
Protocol: as §1, with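 “ESI-).” for “ESI-). CCS (TWCCSN2, Å2) was calibrated with Major Mix IMS/TOF and LockCCS leucine enkephalin; inter-day RSD was <1%.”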

[5] = ionization: ESI negative, pH 9.0 ammonium acetate
[6] = ionization: ESI positive, pH 3.0 ammonium formate

Row | collision cross section [1] | collision cross section [2] | retention time on BEH HILIC column [3, 5] | retention time on BEH HILIC column [3, 6] | collision cross section [4] | SMILES
1 | 129.97 Å² | 128.72 Å² | 3.07 min | 3.12 min |  | O=C(O)c1ccc(CO)o1 [Sumiki's acid]
2 | 146 Å² | 133.54 Å² | 5.92 min | 5.84 min |  | O[C@H]1[C@H](O)[C@@H](O)[C@H](O)[C@@H](O)[C@H]1O [myo-inositol]
3 | 138.79 Å² | 118.87 Å² | 2.23 min | 2.23 min |  | O=C(O)/C=C(\CC(=O)O)C(=O)O [trans-aconitic acid]
4 | 136.98 Å² | 128.96 Å² | 5.03 min | 4.84 min |  | O=C(O)CCCC(=O)C(=O)O [Oxoadipic acid]
5 | 140.74 Å² |  |  | 1.08 min |  | O=C(O)C(CO)c1ccccc1 (centres undefined) [Tropate]
6 | 174.95 Å² | 179.98 Å² | 0.73 min | 0.75 min |  | CCCCC/C=C\C/C=C\CCCCCCCC(=O)O [Linoleic acid]
7 | 140.03 Å² | 133.44 Å² | 4.6 min | 4.7 min |  | OC[C@@H](O)[C@@H](O)[C@H](O)[C@@H](O)CO [Sorbitol]
8 | 161.96 Å² | 143.64 Å² | 0.9 min | 0.93 min |  | COc1cc(/C=C/C(=O)O)ccc1O [trans-ferulic acid]
9 | 171.56 Å² | 169.11 Å² | 6.6 min | 6.77 min |  | OC[C@H]1O[C@@](CO)(O[C@H]2O[C@H](CO)[C@@H](O)[C@H](O)[C@H]2O)[C@@H](O)[C@@H]1O [Sucrose]
10 | 139.19 Å² | 126.73 Å² | 2.8 min | 2.24 min |  | O=C(O)/C=C(/CC(=O)O)C(=O)O [cis-aconitic]
11 | 140.03 Å² | 134.82 Å² | 4.75 min | 4.8 min |  | OC[C@@H](O)[C@@H](O)[C@H](O)[C@H](O)CO [Mannitol]
12 | 174.13 Å² | 171.26 Å² | 6.83 min | 6.7 min |  | OC[C@@H](O)[C@@H](O[C@H]1O[C@H](CO)[C@@H](O)[C@H](O)[C@H]1O)[C@H](O)[C@@H](O)CO [Maltitol]
13 | 133.34 Å² | 126.54 Å² | 3.57 min | 2.85 min |  | OC[C@@H](O)[C@@H](O)[C@@H](O)CO [Ribitol]
14 |  | 131.1 Å² | 6.46 min | 6.26 min | 131.44 Å² | CC(C)C[C@H](N)C(=O)O [L-leucine]
15 |  | 212.59 Å² | 0.73 min | 0.73 min | 216.53 Å² | Cc1c(C)c2c(c(C)c1O)CC[C@@](C)(CCC[C@H](C)CCC[C@H](C)CCCC(C)C)O2 [a-tocopherol]
16 |  | 153.03 Å² | 1.47 min | 1.47 min | 146.3 Å² | O=c1ccn([C@@H]2O[C@H](CO)[C@@H](O)[C@H]2O)c(=O)[nH]1 [Uridine]
17 |  | 129.28 Å² | 12.7 min | 12.6 min | 131.08 Å² | N[C@@H](Cc1cnc[nH]1)C(=O)O [L-histidine]
18 |  | 129.46 Å² | 6.68 min | 6.47 min | 133.13 Å² | CC[C@H](C)[C@H](N)C(=O)O [L-isoleucine]
19 |  | 262.11 Å² | 12.3 min | 13.5 min | 260.23 Å² | CC(C)(COP(=O)(O)OP(=O)(O)OC[C@H]1O[C@@H](n2cnc3c(N)ncnc32)[C@H](O)[C@@H]1OP(=O)(O)O)[C@@H](O)C(=O)NCCC(=O)NCCSC(=O)CCC(=O)O [Succinyl-CoA]
20 |  | 141.98 Å² | 0.88 min | 0.9 min | 137.05 Å² | O=C(O)Cc1c[nH]c2ccccc12 [Indoleacetic acid]
21 |  | 134.49 Å² | 4.13 min | 4.01 min | 135.88 Å² | O=C(O)c1cc(=O)c2ccccc2[nH]1 [Kynurenic acid]
22 |  | 123.74 Å² | 5.48 min | 6.77 min | 126.02 Å² | O=C1CC[C@@H](C(=O)O)N1 [Pyroglutamic acid]
23 | 135.32 Å² |  |  | 3.25 min |  | O=C[C@H](O)[C@H](O)[C@H](O)[C@@H](O)CO [L-talose]

Further lines, the compound ahead of its results:

Row | SMILES | collision cross section [1] | collision cross section [2] | retention time on BEH HILIC column [3, 5] | retention time on BEH HILIC column [3, 6] | collision cross section [4]
24 | O=P(O)(O)OC[C@H]1OC(O)[C@H](O)[C@@H](O)[C@@H]1O (some centres undefined) [Glucose 6-phosphate] | 154.07 Å² | 148.86 Å² | 12.1 min | 9.32 min | 
25 | O=C(O)CCCCCCCC(=O)O [Azelaic acid] | 145.99 Å² | 139.96 Å² | 0.8 min | 1 min | 
26 | O=C[C@H](O)COP(=O)(O)O [D-glyceraldehyde 3-phosphate] | 137.94 Å² | 131.08 Å² | 12.1 min | 11.6 min | 
27 | OC[C@@H](O)[C@@H](O)CO [Erythritol] | 128.38 Å² |  |  | 2.08 min | 
28 | OC[C@@H](O)[C@H](O)[C@@H](O)CO [D-xylitol] | 133.34 Å² | 128.01 Å² | 3.16 min | 3.16 min | 
29 | OC[C@@H](O)[C@H](O)[C@H](O)[C@@H](O)CO [Galactitol] | 140.03 Å² | 133.44 Å² | 4.84 min | 5.56 min | 
30 | OC[C@H]1O[C@H](O)[C@@H](O)[C@@H](O)[C@@H]1O [D-mannose] | 140.11 Å² | 132.14 Å² | 5.43 min | 3.87 min | 
31 | CCCCCCCCCCCCCCCCCCCCCC(=O)O [Behenic acid] | 204.26 Å² | 197.18 Å² | 0.73 min | 0.82 min | 
32 | O[C@H]1[C@H](O)[C@H](O)OC[C@H]1O [D-arabinose] | 131.78 Å² |  |  | 2.28 min | 
33 | OC[C@@H](O)C(O)[C@H](O)CO [D-arabitol] | 133.34 Å² | 126.54 Å² | 3.16 min | 3.12 min | 
34 | OC[C@H]1O[C@](O)(CO)[C@@H](O)[C@@H]1O [D-fructose] | 140.11 Å² |  |  | 3.49 min | 
35 | OC1OC[C@@H](O)[C@H](O)[C@H]1O (stereo partly drawn) [D-xylose] | 131.78 Å² |  |  | 2 min | 
36 | OC[C@H]1O[C@@H](O)[C@H](O)[C@@H](O)[C@@H]1O [D-glucose] | 143.24 Å² |  |  | 3.88 min | 
37 | OC[C@@]1(O)OC[C@@H](O)[C@H](O)[C@@H]1O [D-tagalose] | 136.93 Å² |  |  | 3.02 min | 
38 | Nc1nc(=O)c2[nH]cnc2[nH]1 [Guanine] |  | 125.12 Å² | 3.65 min | 3.62 min | 128.49 Å²
39 | O=C(O)CC(O)c1cccc(O)c1 (centres undefined) [3-(3-hydroxyphenyl)-3-hydroxypropanoic acid] | 146.99 Å² | 138.92 Å² |  |  | 
40 | Nc1ncnc2c1ncn2[C@@H]1O[C@H](COP(=O)(O)O)[C@@H](O)[C@H]1O [AMP] |  | 175.53 Å² | 12 min | 9.15 min | 167.89 Å²
41 | OC[C@H]1O[C@H](O)[C@H](O)[C@@H](O)[C@H]1O [D-galactose] | 138.53 Å² |  |  | 4.2 min | 
